Measurements: ChEMBL document CHEMBL4308870, “Discovery and SAR studies of novel 2-anilinopyrimidine-based selective inhibitors against triple-negative breast cancer cell line MDA-MB-468” (2019)

Tests used:
Format in all cases: functional
MCF7 [1] = assay: Cytotoxicity against human MCF7 cells assessed as cell viability at 10 uM after 48 hrs by MTT assay relative to control; conditions: MCF7, 48 h, read-out: Activity
MDA-MB-468 [2] = assay: Cytotoxicity against EGFR over-expressing human MDA-MB-468 cells assessed as cell viability at 10 uM after 48 hrs by MTT assay relative to control; conditions: MDA-MB-468, 48 h, read-out: Activity
MCF7 [3] = assay: cells; conditions: Homo sapiens, MCF7, 48 h
Description: Growth inhibition of human MCF7 cells after 48 hrs by MTT assay

[4] = Selectivity index, ratio of GI50 for human MCF7 cells to GI50 for EGFR over-expressing human MDA-MB-468 cells
MDA-MB-468 [5] = assay: cells; conditions: Homo sapiens, MDA-MB-468, 48 h
Description: Growth inhibition of EGFR over-expressing human MDA-MB-468 cells after 48 hrs by MTT assay

## c1cc(N2CCSCC2)nc(Nc2ccc(OCCCN3CCSCC3)cc2)n1
MCF7 [1]
  viability at 10 µM: 77.8%
MDA-MB-468 [2]
  viability at 10 µM: 65%

## c1cc(N2CCCC2)nc(Nc2ccc(OCCCN3CCSCC3)cc2)n1
MCF7 [1]
  viability at 10 µM: 84.7%
MDA-MB-468 [2]
  viability at 10 µM: 78.3%

## CCN(CC)CCCOc1ccc(Nc2nccc(N3CCOCC3)n2)cc1
MCF7 [1]
  viability at 10 µM: 66.5%
MDA-MB-468 [2]
  viability at 10 µM: 79.4%

## CC1CCN(c2ccnc(Nc3ccc(OCCCN4CCOCC4)cc3)n2)CC1
MCF7 [1]
  viability at 10 µM: 71.8%
MDA-MB-468 [2]
  viability at 10 µM: 51.3%
MCF7 [3]
  GI50: > 30 µM
[4]
  RatioGI50: >1.8
MDA-MB-468 [5]
  GI50: 16.3 µM

## CCN(CC)CCCOc1ccc(Nc2nccc(N3CCSCC3)n2)cc1
MCF7 [1]
  viability at 10 µM: 86.4%
MDA-MB-468 [2]
  viability at 10 µM: 88%

## c1cc(N2CCCC2)nc(Nc2ccc(OCCCN3CCCCC3)cc2)n1
MCF7 [1]
  viability at 10 µM: 66.1%
MDA-MB-468 [2]
  viability at 10 µM: 58.1%

## c1cc(N2CCOCC2)nc(Nc2ccc(OCCCN3CCCCC3)cc2)n1
MCF7 [1]
  viability at 10 µM: 95.7%
MDA-MB-468 [2]
  viability at 10 µM: 86.8%

## CC1CCN(c2ccnc(Nc3ccc(OCCCN4CCSCC4)cc3)n2)CC1
MCF7 [1]
  viability at 10 µM: 79.5%
MDA-MB-468 [2]
  viability at 10 µM: 61.3%

## c1cc(N2CCCCC2)nc(Nc2ccc(OCCCN3CCOCC3)cc2)n1
MCF7 [1]
  viability at 10 µM: 61.8%
MDA-MB-468 [2]
  viability at 10 µM: 55.2%
MCF7 [3]
  GI50: > 30 µM
MDA-MB-468 [5]
  GI50: 18.3 µM

## CN1CCN(c2ccnc(Nc3ccc(OCCCN4CCSCC4)cc3)n2)CC1
MCF7 [1]
  viability at 10 µM: 79.8%
MDA-MB-468 [2]
  viability at 10 µM: 56.5%

## ClC1CCN(c2ccnc(Nc3ccc(OCCCN4CCCCC4)cc3)n2)CC1
MCF7 [1]
  viability at 10 µM: 87.1%
MDA-MB-468 [2]
  viability at 10 µM: 52.1%
MCF7 [3]
  GI50: > 30 µM
[4]
  RatioGI50: >2.6
MDA-MB-468 [5]
  GI50: 11.5 µM

## CCN(CC)c1ccnc(Nc2ccc(OCCCN3CCCCC3)cc2)n1
MCF7 [1]
  viability at 10 µM: 69.7%
MDA-MB-468 [2]
  viability at 10 µM: 53.1%
MCF7 [3]
  GI50: 18.3 µM
[4]
  RatioGI50: 1.6
MDA-MB-468 [5]
  GI50: 11.4 µM

## ClC1CCN(c2ccnc(Nc3ccc(OCCCN4CCSCC4)cc3)n2)CC1
MCF7 [1]
  viability at 10 µM: 87.7%
MDA-MB-468 [2]
  viability at 10 µM: 62.7%

## CCN(CC)c1ccnc(Nc2ccc(OCCCN3CCSCC3)cc2)n1
MCF7 [1]
  viability at 10 µM: 91.9%
MDA-MB-468 [2]
  viability at 10 µM: 36%
MCF7 [3]
  GI50: 27.3 µM
[4]
  RatioGI50: 3.6
MDA-MB-468 [5]
  GI50: 7.6 µM

## c1cc(N2CCSCC2)nc(Nc2ccc(OCCCN3CCOCC3)cc2)n1
MCF7 [1]
  viability at 10 µM: 86.1%
MDA-MB-468 [2]
  viability at 10 µM: 73.4%

## CN1CCN(c2ccnc(Nc3ccc(OCCCN4CCCCC4)cc3)n2)CC1
MCF7 [1]
  viability at 10 µM: 76.9%
MDA-MB-468 [2]
  viability at 10 µM: 71.7%

## ClC1CCN(c2ccnc(Nc3ccc(OCCCN4CCOCC4)cc3)n2)CC1
MCF7 [1]
  viability at 10 µM: 93.3%
MDA-MB-468 [2]
  viability at 10 µM: 61.6%

## c1cc(N2CCCCC2)nc(Nc2ccc(OCCCN3CCCCC3)cc2)n1
MCF7 [1]
  viability at 10 µM: 86.7%
MDA-MB-468 [2]
  viability at 10 µM: 45.1%
MCF7 [3]
  GI50: > 30 µM
[4]
  RatioGI50: >3.3
MDA-MB-468 [5]
  GI50: 9.2 µM

## CCN(CC)CCCOc1ccc(Nc2nccc(N3CCC(C)CC3)n2)cc1
MCF7 [1]
  viability at 10 µM: 93.2%
MDA-MB-468 [2]
  viability at 10 µM: 16.9%
MCF7 [3]
  GI50: > 30 µM
[4]
  RatioGI50: >4.3
MDA-MB-468 [5]
  GI50: 6.9 µM

## COc1cc2ncnc(Nc3ccc(F)c(Cl)c3)c2cc1OCCCN1CCOCC1 [GEFITINIB]
MCF7 [1]
  viability at 10 µM: 70.3%
MDA-MB-468 [2]
  viability at 10 µM: 60.3%

## CN1CCN(c2ccnc(Nc3ccc(OCCCN4CCOCC4)cc3)n2)CC1
MCF7 [1]
  viability at 10 µM: 89.6%
MDA-MB-468 [2]
  viability at 10 µM: 80.7%

## CCN(CC)c1ccnc(Nc2ccc(OCCCN3CCOCC3)cc2)n1
MCF7 [1]
  viability at 10 µM: 94.9%
MDA-MB-468 [2]
  viability at 10 µM: 69.7%

## c1cc(N2CCOCC2)nc(Nc2ccc(OCCCN3CCOCC3)cc2)n1
MCF7 [1]
  viability at 10 µM: 83.2%
MDA-MB-468 [2]
  viability at 10 µM: 84.5%

## c1cc(N2CCCC2)nc(Nc2ccc(OCCCN3CCOCC3)cc2)n1
MCF7 [1]
  viability at 10 µM: 89%
MDA-MB-468 [2]
  viability at 10 µM: 77.1%

## CCN(CC)CCCOc1ccc(Nc2nccc(N3CCN(C)CC3)n2)cc1
MCF7 [1]
  viability at 10 µM: 67%
MDA-MB-468 [2]
  viability at 10 µM: 64.6%

## CCN(CC)CCCOc1ccc(Nc2nccc(N3CCCCC3)n2)cc1
MCF7 [1]
  viability at 10 µM: 95.4%
MDA-MB-468 [2]
  viability at 10 µM: 62%

## c1cc(N2CCSCC2)nc(Nc2ccc(OCCCN3CCCCC3)cc2)n1
MCF7 [1]
  viability at 10 µM: 60%
MDA-MB-468 [2]
  viability at 10 µM: 78.1%

## c1cc(N2CCCCC2)nc(Nc2ccc(OCCCN3CCSCC3)cc2)n1
MCF7 [1]
  viability at 10 µM: 72.9%
MDA-MB-468 [2]
  viability at 10 µM: 71.8%

## CC1CCN(c2ccnc(Nc3ccc(OCCCN4CCCCC4)cc3)n2)CC1
MCF7 [1]
  viability at 10 µM: 73.7%
MDA-MB-468 [2]
  viability at 10 µM: 21.3%
MCF7 [3]
  GI50: 28.1 µM
[4]
  RatioGI50: 4.4
MDA-MB-468 [5]
  GI50: 6.4 µM

## CCN(CC)CCCOc1ccc(Nc2nccc(N3CCCC3)n2)cc1
MCF7 [1]
  viability at 10 µM: 78.5%
MDA-MB-468 [2]
  viability at 10 µM: 69.7%

## c1cc(N2CCOCC2)nc(Nc2ccc(OCCCN3CCSCC3)cc2)n1
MCF7 [1]
  viability at 10 µM: 67.9%
MDA-MB-468 [2]
  viability at 10 µM: 57.4%
